Laboratory results: BigSolDB 2.1

Conditions: in water

O=C(O)CCCCCCC(=O)O
Conditions	solubility (mole fraction)
280.15 K	9.55e-05
285.85 K	0.000128
291.85 K	0.000177
298.15 K	0.00025
305.65 K	0.000341
307.65 K	0.000369
313.15 K	0.00042
317.65 K	0.000485
323.35 K	0.000579
325.85 K	0.00064
334.65 K	0.00101
337.15 K	0.00117
343.25 K	0.00149
349.65 K	0.00212

CC(=O)CCC(=O)O
Conditions	solubility (mole fraction)
280.15 K	0.18
283.15 K	0.214
287.65 K	0.278
293.95 K	0.374
298.15 K	0.448
303.25 K	0.519

O=C(O)COCC(=O)O
Conditions	solubility (mole fraction)
278.25 K	0.0365
284.15 K	0.0469
288.75 K	0.0686
293.75 K	0.0748
296.65 K	0.0823
301.25 K	0.104
310.65 K	0.128
313.15 K	0.139
321.15 K	0.161
323.15 K	0.167
327.65 K	0.188
332.65 K	0.205
338.15 K	0.22
343.15 K	0.239
348.15 K	0.254
353.05 K	0.268
357.15 K	0.284
361.35 K	0.295

O=C(O)CCCCCCCC(=O)O
Conditions	solubility (mole fraction)
280.15 K	5.94e-05
285.85 K	8.13e-05
291.85 K	0.000117
298.15 K	0.000171
307.85 K	0.000287
316.15 K	0.000336
325.75 K	0.000481
330.15 K	0.0007
334.65 K	0.000931
338.15 K	0.00128
344.15 K	0.00132
347.65 K	0.00153
353.05 K	0.00191
357.65 K	0.00173
